Measurements from patent US12495798B2, “Nicotinamide compound and herbicidal composition comprising compound” (KOREA RESEARCH INSTITUTE OF CHEMICAL TECHNOLOGY, priority 2019, dated 2025).

Key:
Type in all cases: in vivo
[1] = test system: fall panicum; assay: Herbicidal activity test against upland field weeds (foliar treatment test); conditions: Panicum dichotomiflorum, 50 g ai/ha, scale 0-100
How it was run: (§1)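 Visual 0–100 control ratings relative to untreated plants, taken 14 (or 21) days after spraying foliage at 50 or 75 g a.i./ha. Spray solution: 50% acetone with 0.1% Tween-20; plants kept in greenhouse at 30±5 °C, 14 h light/10 h dark.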

[2] = test system: barnyard grass; assay: Herbicidal activity test against upland field weeds (soil treatment test); parameters: key to Soil treatment herbicidal activity, barnyard grass: 0 (no control); 100 (complete control); conditions: 50 g ai/ha, scale 0 (no control) to 100 (complete control)
How it was run: (§2)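 Weed control scored visually on a 0 (none) to 100 (complete) scale versus untreated pots at 14 or 21 days in greenhouse (30±5 °C, 14 h light). Test compounds, 50 or 75 g a.i./ha in 50% acetone/0.1% Tween-20, hand-sprayed onto soil one day post-sowing.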

[3] = test system: crabgrass; assay: as above; parameters: key to Soil treatment herbicidal activity, Crabgrass: 0 (no control); 100 (complete control); conditions: 50 g ai/ha, scale 0 (no control) to 100 (complete control)
How it was run: as §2

[4] = test system: indian jointvetch; assay: as above; parameters: key to Soil treatment herbicidal activity, Indian jointvetch: 0 (no control); 100 (complete control); conditions: 50 g ai/ha, scale 0 (no control) to 100 (complete control)
How it was run: as §2

[5] = test system: soybean; assay: Phytotoxicity test for field crops (soil treatment test); parameters: key: 0 (no harm); 9 (complete withered)
How it was run: (§3)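 Seeds went into sterilized horticultural soil mixed with N:P:K 17:21:17 fertilizer. The next day the soil surface received a spray of compound in acetone/Tween-20 diluent delivering 19˜300 g a.i./ha. After 10 and 20 days under greenhouse conditions, injury was rated by eye from 0 to 9 against untreated pots.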

[6] = test system: rice; assay: as above; parameters: key: 0 (no harm); 9 (complete withered)
How it was run: as §3

[7] = test system: cotton; assay: as above; parameters: key: 0 (no harm); 9 (complete withered)
How it was run: as §3

[8] = test system: wheat; assay: as above; parameters: key: 0 (no harm); 9 (complete withered)
How it was run: as §3

[9] = test system: corn; assay: as above; parameters: key: 0 (no harm); 9 (complete withered)
How it was run: as §3

[10] = test system: barnyard grass; assay: Herbicidal activity test against upland field weeds (foliar treatment test); conditions: Echinochloa crus-galli, 50 g ai/ha, scale 0-100
How it was run: as §1

[11] = test system: cocklebur; assay: as above; conditions: Xanthium strumarium, 50 g ai/ha, scale 0-100
How it was run: as §1

[12] = test system: cocklebur; assay: Herbicidal activity test against upland field weeds (soil treatment test); parameters: key to Soil treatment herbicidal activity, Cocklebur: 0 (no control); 100 (complete control); conditions: 50 g ai/ha, scale 0 (no control) to 100 (complete control)
How it was run: as §2

[13] = test system: bindweed; assay: as above; conditions: 50 g ai/ha, scale 0 (no control) to 100 (complete control)
How it was run: as §2

[14] = test system: quack grass; assay: Herbicidal activity test against upland field weeds (foliar treatment test); parameters: key to Foliar treatment herbicidal activity, quack grass: 0 (no control); 100 (complete control); conditions: 50 g ai/ha, scale 0-100
How it was run: as §1

[15] = 50 g ai/ha, Soybean (10 days after treatment)
[16] = 50 g ai/ha, Soybean (20 days after treatment)
[17] = 100 g ai/ha, Soybean (10 days after treatment)
[18] = 100 g ai/ha, Soybean (20 days after treatment)
[19] = 50 g ai/ha, Rice (10 days after treatment)
[20] = 50 g ai/ha, Rice (20 days after treatment)
[21] = 100 g ai/ha, Rice (10 days after treatment)
[22] = 100 g ai/ha, Rice (20 days after treatment)
[23] = 50 g ai/ha, Cotton (10 days after treatment)
[24] = 50 g ai/ha, Cotton (20 days after treatment)
[25] = 100 g ai/ha, Cotton (10 days after treatment)
[26] = 100 g ai/ha, Cotton (20 days after treatment)
[27] = 50 g ai/ha, Wheat (10 days after treatment)
[28] = 100 g ai/ha, Wheat (10 days after treatment)
[29] = 100 g ai/ha, Wheat (20 days after treatment)
[30] = 50 g ai/ha, Corn (10 days after treatment)
[31] = 50 g ai/ha, Corn (20 days after treatment)
[32] = 100 g ai/ha, Corn (10 days after treatment)
[33] = 100 g ai/ha, Corn (20 days after treatment)

Row | Compound | pest or weed control at 50 g/ha [1] [%] | Soil treatment herbicidal activity, barnyard grass [2] | Soil treatment herbicidal activity, Crabgrass [3] | Soil treatment herbicidal activity, Indian jointvetch [4] | Soil treatment phytotoxicity, Soybean [5, 15] | Soil treatment phytotoxicity, Soybean [5, 16] | Soil treatment phytotoxicity, Soybean [5, 17] | Soil treatment phytotoxicity, Soybean [5, 18] | Soil treatment phytotoxicity, Rice [6, 19] | Soil treatment phytotoxicity, Rice [6, 20] | Soil treatment phytotoxicity, Rice [6, 21] | Soil treatment phytotoxicity, Rice [6, 22] | Soil treatment phytotoxicity, Cotton [7, 23] | Soil treatment phytotoxicity, Cotton [7, 24] | Soil treatment phytotoxicity, Cotton [7, 25] | Soil treatment phytotoxicity, Cotton [7, 26] | Soil treatment phytotoxicity, Wheat [8, 27] | Soil treatment phytotoxicity, Wheat [8, 28] | Soil treatment phytotoxicity, Wheat [8, 29] | Soil treatment phytotoxicity, Corn [9, 30] | also measured
1 | CON(Cc1nnn(C)n1)c1nc(C(F)(F)F)ccc1C(=O)Nc1nnnn1C [Compound No. 2-30, 2-(methoxy((2-methyl-2H-tetrazol-5-yl)methyl)amino)-N-(1-methyl-1H-tetrazol-5-yl)-6-(trifluoromethyl)nicotinamide] | 60 | 100 | 100 | 100 | 7 | 7 | 7 | 7 | 4 | 9 | 6 | 9 | 2 | 9 | 2 | 9 | 0 | 0 | 1 | 0 | Soil treatment phytotoxicity, Wheat ([8]; 50 g ai/ha, Wheat (20 days after treatment)): 1; Soil treatment phytotoxicity, Corn [9, 31]: 0; Soil treatment phytotoxicity, Corn [9, 32]: 0; Soil treatment phytotoxicity, Corn [9, 33]: 0; pest or weed control at 50 g/ha [10]: 95%; pest or weed control at 50 g/ha [11]: 98%; pest or weed control at 50 g/ha ([12]; Xanthium strumarium): 90%; pest or weed control at 50 g/ha [13]: 70%; Foliar treatment herbicidal activity, quack grass [14]: 0
2 | Cn1nnc(COCc2nc(C(F)(F)F)ccc2C(=S)Nc2nnnn2C)n1 [Compound No. 2-106, N-(1-methyl-1H-tetrazol-5-yl)-2-(((2-methyl-2H-tetrazol-5-yl)methoxy)methyl)-6-(trifluoromethyl)pyridin-3-carbothioamide] | 70 | 100 | 100 | 100 | 0 | 0 | 0 | 0 | 8 | 8 | 9 | 9 | 4 | 6.5 | 5 | 8 | 0 | 0 | 1 | 0 | Soil treatment phytotoxicity, Corn [9, 31]: 0; Soil treatment phytotoxicity, Corn [9, 32]: 0; Soil treatment phytotoxicity, Corn [9, 33]: 0; pest or weed control at 50 g/ha [10]: 80%; pest or weed control at 50 g/ha [11]: 95%; Soil treatment herbicidal activity, Cocklebur [12]: 100; pest or weed control at 50 g/ha [13]: 98%; Foliar treatment herbicidal activity, quack grass [14]: 0
